One assay deals with T1, NDM-1 (Klebsiella pneumoniae, UniProt C7C422).
T1 construct: made in house
Kind of assay: Dose rate inhibition studies for IC50 determination, NDM-1 enzymatic assay. The note with it: inhibitor 0-800 μM, 3 parallel measurements, N.I. = no enzyme inhibitory activity observed; for Enzyme IC50 NDM-1: 10 nM NDM-1, 100 μM ZnCl2, imipenem substrate; for IC50: Enzyme IC50 NDM-1, 10 nM NDM-1, 100 μM ZnCl2, imipenem substrate. Format: biochemical. The method, then:
(§1) The […] synthesized compounds 5a–l were tested for their inhibitory activities against NDM-1, VIM-2 (Table 1), and GIM-1 in an in vitro enzymatic assay (ESI ^†).[41] The inhibitory activity was measured using enzyme concentrations of 0.1 nM VIM-2, 10 nM NDM-1 or 1 nM GIM-1, with an excess Zn(II) (100 μM, see Experimental methods), with inhibitor compounds with concentrations from 0 to 800 μM. Each data point was measured in triplicates. […] This is in line with previous reports.[42,43]
(§2) A 100 μl solution with buffer (50 mM HEPES (pH 7.2), 100 μM ZnCl2, 2.5% DMSO), purified enzyme (0.1 nM VIM-2, 10 nM NDM-1 or 1 nM GIM-1) and 800–0 μM inhibitor was incubated in a 96 well plate at 25 °C for 5 min. In addition, the enzyme buffer contained 400 μg ml^−1 bovine serum albumin (BSA) to prevent protein unfolding and loss of activity due to low concentrations.[67,68] 100 μM of the reporter substrate nitrocefin (VIM-2, GIM-1) or imipenem (NDM-1) was added to the enzyme–inhibitor solution and the increase in absorbance at 482 nm (nitrocefin) or 300 nm (imipenem) was recorded on a Spectramax M4 spectrophotometer (Molecular Devices). Each data point was performed in triplicates and the initial velocity for each inhibitor concentration was analyzed by a log [inhibitor] vs. response curve fitting to calculate IC50 in GraphPad Prism 9.2 software.

Another assay addresses T2, VIM-2 (Escherichia coli, UniProt Q5U7L7).
T2 construct: made in house
Kind of assay: Dose rate inhibition studies for IC50 determination, VIM-2 enzymatic assay. Particulars: inhibitor 0-800 μM, 3 parallel measurements, N.I. = no enzyme inhibitory activity observed; for IC50: Enzyme IC50 VIM-2, 0.1 nM VIM-2, 100 μM ZnCl2, nitrocefin substrate; for Enzyme IC50 VIM-2: 0.1 nM VIM-2, 100 μM ZnCl2, nitrocefin substrate. It counts as biochemical. The method, then: as §1, §2

For orientation: IC50 means the concentration that gives 50% inhibition. A lower IC50 goes with greater potency in that assay.

Structures can show the parent of a compound that is named as a salt.

T1 sequence (C7C422 29-270 limits assumed): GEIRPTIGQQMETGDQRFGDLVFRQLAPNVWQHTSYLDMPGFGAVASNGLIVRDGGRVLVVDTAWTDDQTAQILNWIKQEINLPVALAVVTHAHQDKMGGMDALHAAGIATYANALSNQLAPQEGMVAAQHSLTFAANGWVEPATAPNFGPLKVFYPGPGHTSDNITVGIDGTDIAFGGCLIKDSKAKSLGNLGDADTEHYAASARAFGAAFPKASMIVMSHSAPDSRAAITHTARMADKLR

Turning to `Cl.O=C(NC(C1CCCCN1)P(=O)(O)O)c1scc2c1CCCC2` (single isomer, unassigned) [Compound 5f-2, (Piperidin-2-yl(4,5,6,7-tetrahydrobenzo[c]thiophene-1-carboxamido)methyl)phosphonic acid hydrochloride], the “Enzyme IC50 NDM-1” value at NDM-1 is on record as “N.I”. The compound also gave an IC50 against VIM-2 of 18.8 ± 0.5 µM.

Turning to `Cl.O=C(NC(C1CCCCN1)P(=O)(O)O)c1scc2c1CCCC2` (single isomer, unassigned) [Compound 5f-1, (Piperidin-2-yl(4,5,6,7-tetrahydrobenzo[c]thiophene-1-carboxamido)methyl)phosphonic acid hydrochloride], the “Enzyme IC50 NDM-1” value at NDM-1 is reported as “N.I”. Further, the IC50 against VIM-2 came to 37 ± 3 µM.

As for `Cl.O=C(NC(C1CCCCN1)P(=O)(O)O)c1csc2c1CCCC2` (single isomer, unassigned) [Compound 5e-2, (Piperidin-2-yl(4,5,6,7-tetrahydrobenzo[b]thiophene-3-carboxamido)methyl)phosphonic acid hydrochloride], the “Enzyme IC50 NDM-1” value at NDM-1 is reported as “N.I”. In addition, the IC50 against VIM-2 is 46.1 ± 15.6 µM.

With `O=C(NC(C1CCCCN1)P(=O)(O)O)c1csc2ccccc12` (stereo not shown) [Compound 5h-1, ((Benzo[b]thiophene-3-carboxamido)(piperidin-2-yl)met-hyl)phosphonic acid hydrochloride], the “Enzyme IC50 NDM-1” value on NDM-1 was “N.I”. Also, the IC50 on VIM-2 was 40.6 ± 3.9 µM.

On NDM-1, `Cl.O=C(Cc1csc2ccccc12)NC(C1CCCCN1)P(=O)(O)O` (stereo not shown) [Compound 5l-1, ((2-(Benzo[b]thiophen-3-yl)acetamido)(piperidin-2-yl)methyl)phosphonic acid hydrochloride] displayed an IC50 of 7.9 ± 1.6 µM. The “Enzyme IC50 VIM-2” value on VIM-2 is listed as “N.I”.

With `O=C(NC(C1CCCCN1)P(=O)(O)O)c1csc2ccccc12` (stereo not shown) [Compound 5h-2, ((Benzo[b]thiophene-3-carboxamido)(piperidin-2-yl)met-hyl)phosphonic acid hydrochloride], the “Enzyme IC50 NDM-1” value at NDM-1 is on record as “N.I”. For the same compound, the IC50 at VIM-2 stood at 11.6 ± 4.7 µM.

Turning to `O=C(Cc1cc2ccccc2s1)NC(C1CCCCN1)P(=O)(O)O` (single isomer, unassigned) [Compound 5k-2, ((2-(Benzo[b]thiophen-2-yl)acetamido)(piperidin-2-yl)methyl)phosphonic acid hydrochloride], the IC50 on VIM-2 amounted to 28.7 ± 10.1 µM.

For the compound `Cl.O=C(NC(C1CCCCN1)P(=O)(O)O)c1cc2c(s1)CCCC2` (stereo not shown) [Compound 5d-2, (Piperidin-2-yl(4,5,6,7-tetrahydrobenzo[b]thiophene-2-carboxamido)methyl)phosphonic acid hydrochloride], the “Enzyme IC50 NDM-1” value on NDM-1 is “N.I”. For the same compound, the IC50 against VIM-2 turned out to be 4.5 ± 0.8 µM.

On to `O=C(Cc1csc2ccccc12)NC(C1CCCCN1)P(=O)(O)O` (stereo not shown) [Compound 5l-2, ((2-(Benzo[b]thiophen-3-yl)acetamido)(piperidin-2-yl)methyl)phosphonic acid hydrochloride], for which the IC50 against NDM-1 is 27.8 ± 21 µM; against VIM-2, 94.4 ± 5.8 µM.

In the case of `Cc1[nH]c(=S)sc1CC(=O)NC(C1CCCCN1)P(=O)(O)O` (stereo not shown) [Compound 5a-2, ((2-(4-Methyl-2-thioxo-2,3-dihydrothiazol-5-yl)acet-amido)(piperidin-2-yl)methyl)phosphonic acid hydro-chloride], the “Enzyme IC50 NDM-1” value at NDM-1 is reported as “N.I”. In addition, the “Enzyme IC50 VIM-2” value at VIM-2 was “N.I”.

Turning to `Cl.O=C(Cc1cc2ccccc2s1)NC(C1CCCCN1)P(=O)(O)O` (single isomer, unassigned) [Compound 5k-1, ((2-(Benzo[b]thiophen-2-yl)acetamido)(piperidin-2-yl)methyl)phosphonic acid hydrochloride], the “Enzyme IC50 NDM-1” value on NDM-1 is on record as “N.I”. On VIM-2, the IC50 turned out to be 56.6 ± 1 µM.

Consider `O=C(NC(C1CCCCN1)P(=O)(O)O)c1csc2c1CCCC2` (single isomer, unassigned) [Compound 5e-1, (Piperidin-2-yl(4,5,6,7-tetrahydrobenzo[b]thiophene-3-carboxamido)methyl)phosphonic acid hydrochloride], for which inhibition against VIM-2 was half-maximal at 69.7 ± 26.2 µM (IC50).
